Reference: patent US20090169643A1, “Composition for Enhancing Immune Function” (priority 2006, published 2009)

Tests used:
[1] = system: human peripheral mononuclear cells; assay: Metabolic activity of human peripheral mononuclear cells (WST-1 formazan, 48 h culture), Test Example 3; assay type: cell-based
Protocol: In the same manner as in Test Example 1, the synergic effect of nigerooligosaccharide and zinc on the metabolic activity of human peripheral mononuclear cells was assessed using nigerooligosaccharide and zinc. After 20 ml of blood collected from each healthy male adult was diluted 2-fold with calcium- and magnesium-free phosphate buffered saline (PBS), the diluted blood sample was overlaid onto 30 ml of a Ficoll-Paque PLUS (GE Healthcare Bio-Sciences) layer so gently as not to disturb the interface, followed by centrifugation at 400×g at 20° C. for 40 minutes. After the centrifugation, lymphocytes and monocytes present in the intermediate layer were carefully collected in a Pasteur pipette. The collected cell suspension was washed with 10-fold PBS twice. After the obtained mononuclear cells were counted with an automatic blood cell counter (Sysmex Corporation: type CDA-500), the suspension was adjusted to a concentration of 2×10^6 cells/ml in RPMI1640 culture medium supplemented with 10% fetal bovine serum, streptomycin and penicillin, and plated in a volume of 50 μl per well into a 96-well culture plate. […] The formazan concentration was determined from absorbance at a measurement wavelength of 415 nm (reference wavelength of 630 nm) using a microplate reader (Corona Electric Co., Ltd.: Type MTP-32).
The values in Table 3 represent absorbance at 415 nm as means±SD of triplicate wells. […]

[2] = system: spleen cell suspension of immunocompetent cells; assay: Metabolic activity of mouse immunocompetent cells (WST-1 formazan, 48 h culture), Test Example 1; assay type: cell-based, Balb/c mice
Description: Zinc was used in the form of zinc sulfate dissolved in distilled water. Spleens were aseptically harvested from ten-week-old female Balb/c mice, teased in RPMI1640 culture medium (GIBCO) supplemented with streptomycin and penicillin (SIGMA), and then passed through a #200 mesh screen to obtain spleen cell suspension of immunocompetent cells. After counting the cells in the spleen cell suspension with an automatic blood cell counter (Sysmex Corporation: type CDA-500), the suspension was adjusted to a concentration of 1×10^7 cells/ml in the above-mentioned RPMI1640 culture medium and plated in a volume of 50 μl per well into a 96-well culture plate. Concanavalin A (SIGMA), a cell-growth stimulating factor, was dissolved in the above-mentioned RPMI1640 culture medium, and 50 μl of the Concanavalin A solution was added to the cell suspension in each well to give a final concentration of 2.0 μg/ml. Additionally, zinc and nigerooligosaccharide were separately dissolved in the above-mentioned RPMI1640 culture medium. […] The formazan concentration was determined from absorbance at a measurement wavelength of 415 nm (reference wavelength of 630 nm) using a microplate reader (Corona Electric Co., Ltd.: Type MTP-32). The values in Table 1 represent absorbance at 415 nm as means±SD of triplicate wells. […]

[3] = system: spleen cell suspension of immunocompetent cells; assay: Metabolic activity of mouse immunocompetent cells during prolonged culture (WST-1 formazan, 144 h), Test Example 2; assay type: cell-based, Balb/c mice; settings: for absorbance at 415 nm (formazan, index of metabolic activity): nigerooligosaccharide 0 ng/ml, Concanavalin A 0.4 μl/ml, 144 hours, mean of triplicate to hexylicate wells
Protocol: In this Test Example, the effect of the combined use of nigerooligosaccharide and zinc on the metabolic activity of immunocompetent cells during prolonged culture was assessed using nigerooligosaccharide and zinc in the same manner as Test Example 1. Spleens were aseptically harvested from ten-week-old female Balb/c mice, teased in RPMI1640 culture medium (GIBCO) supplemented with streptomycin and penicillin (SIGMA), and then passed through a #200 mesh screen to obtain spleen cell suspension of immunocompetent cells. After counting the cells in the spleen cell suspension with an automatic blood cell counter (Sysmex Corporation: type CDA-500), the suspension was adjusted to a concentration of 1×10^7 cells/ml in the above-mentioned RPMI1640 culture medium and plated in a volume of 50 μl per well into a 96-well culture plate. Concanavalin A (SIGMA), a cell-growth stimulating factor, was dissolved in the above-mentioned RPMI1640 culture medium, and 50 μl of the Concanavalin A solution was added to the cell suspension in each well to give a final concentration of 0.4 μl/ml. Additionally, zinc and nigerooligosaccharide were separately dissolved in the above-mentioned RPMI1640 culture medium. 50 μl of the zinc solution was added to each well to give a final concentration of 0, 1 or 2 ng/ml, and similarly, 50 μl of the nigerooligosaccharide solution was added to each well to give a final concentration of 0 or 1000 ng/ml. Thus-prepared immunocompetent cells were cultured in an incubator with 5% CO2 at 37° C. for 144 hours. […] The formazan concentration was determined from absorbance at a measurement wavelength of 415 nm (reference wavelength of 630 nm) using a microplate reader (Corona Electric Co., Ltd.: Type MTP-32).
The values in Table 2 represent absorbance at 415 nm as means of triplicate to hexylicate wells.

## O=S(=O)([O-])[O-].[Zn+2] [zinc, zinc sulfate]
[1]; summary of Table 3, proportion 1:1000
  metabolic activity of human immunocompetent cells (in words): hardly raised the metabolic activity
[1]; zinc 10 ng/ml, nigerooligosaccharide 0 μg/ml, Concanavalin A 2.0 μg/ml, 48 hours, mean±SD of triplicate wells
  absorbance at 415 nm (formazan, index of metabolic activity): 0.348 ± 0.003
[2]; summary of Table 1, 48 hours culture
  metabolic activity of mouse immunocompetent cells (in words): hardly raised the metabolic activity
[2]; zinc 1 ng/ml, nigerooligosaccharide 0 ng/ml, Concanavalin A 2.0 μg/ml, 48 hours, mean±SD of triplicate wells
  absorbance at 415 nm (formazan, index of metabolic activity): 0.815 ± 0.013
[3]; summary of Table 2, 144 hours culture, proportion 1:1000 or 1:500
  metabolic activity of mouse immunocompetent cells during prolonged culture (in words): hardly raised the metabolic activity
[3]; zinc 1 ng/ml
  absorbance at 415 nm (formazan, index of metabolic activity): 0.793
[3]; zinc 2 ng/ml
  absorbance at 415 nm (formazan, index of metabolic activity): 0.786
